In this data set the test system is ACE2-293T cells. The following applies: for Cell viability (%): 10 μM, 24 hours, ACE2-293T cells, vehicle group = 100%, mean ± SD (n = 3); for Cytotoxicity to ACE2-293T cells (result in words): dose of 10 μM.

On to `COc1cc2c3cc1Oc1c(OC)c(OC)cc4c1[C@@H](Cc1ccc(O)c(c1)Oc1ccc(cc1)C[C@@H]3N(C)CC2)N(C)CC4` [Berbamine], for which the “Cell viability (%)” value came to 98.15 ± 3.04% and the “Cytotoxicity to ACE2-293T cells (result in words)” value (“Cytotoxicity to ACE2-293T cells” below) is “caused no harms to the ACE2-293T cells”.

As to `COc1cc2c3cc1Oc1c(O)c(OC)cc4c1[C@@H](Cc1ccc(O)c(c1)Oc1ccc(cc1)C[C@@H]3N(C)CC2)N(C)CC4` [Obamegine], the “Cell viability (%)” value came to 98.19 ± 1.11% and the “Cytotoxicity to ACE2-293T cells” value was “caused no harms to the ACE2-293T cells”.

As to Bersavine, the “Cell viability (%)” value was found to be 95.42 ± 2.33% and the “Cytotoxicity to ACE2-293T cells” value is listed as “caused no harms to the ACE2-293T cells”.

For the origin of these results see patent US12678471B2 (priority 2022, dated 2026).
